Results as given in patent publication US9868772B2 (INDIANA UNIVERSITY RESEARCH AND TECHNOLOGY CORPORATION, priority 2012, dated 2018).
Numbered stars: 1 amine (or outer) side, 2 acyl side, 3 side chain; on linkers, the order of the positions; unused ones are H or OH. Square brackets hold non-standard residues; d marks the D form. Side chains are listed from the residue outwards. Peptide text beside a SMILES is read from it. * marks the point of attachment. γGlu = O=C(O)[C@H](CCC(=O)[*:2])N[*:1]; Desaminohistidyl = O=C(CCc1c[nH]cn1)*; Desaminotyrosyl = O=C(CCc1ccc(O)cc1)*; Palmitoyl = CCCCCCCCCCCCCCCC(=O)*; 2Thi = N[C@@H](Cc1cccs1)C(=O)O; Aib = CC(C)(N)C(=O)O

Assays:
Test in all cases: cAMP induction, firefly luciferase reporter assay in HEK293 cells co-transfected with receptor
Format in all cases: cell-based
[1] = target: T1, GIP receptor (Homo sapiens, UniProt P48546)
T1 construct: expressed in transfected cells; host or cells: HEK293
T1 sequence (P48546 22-466): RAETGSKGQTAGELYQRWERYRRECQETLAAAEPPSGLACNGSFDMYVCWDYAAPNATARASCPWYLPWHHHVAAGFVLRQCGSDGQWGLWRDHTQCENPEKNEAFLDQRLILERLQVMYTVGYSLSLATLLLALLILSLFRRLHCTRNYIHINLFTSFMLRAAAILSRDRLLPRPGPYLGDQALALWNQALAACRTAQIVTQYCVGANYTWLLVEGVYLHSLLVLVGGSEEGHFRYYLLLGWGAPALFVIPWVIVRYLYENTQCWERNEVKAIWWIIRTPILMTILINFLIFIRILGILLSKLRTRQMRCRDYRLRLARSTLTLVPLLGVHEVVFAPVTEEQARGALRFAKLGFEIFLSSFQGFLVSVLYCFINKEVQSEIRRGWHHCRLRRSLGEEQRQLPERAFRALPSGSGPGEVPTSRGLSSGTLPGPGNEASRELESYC
Method: (§1) The ability of glucagon analogs to induce cAMP was measured in a firefly luciferase-based reporter assay. […] At the end of the incubation 100 microliters of LucLite luminescence substrate reagent (Perkin-Elmer, Wellesley, Mass.) were added to each well. […] Effective 50% concentrations were calculated by using Origin software (OriginLab, Northampton, Mass.

[2] = target: T2, GLP-1 receptor (Homo sapiens, UniProt P43220)
T2 construct: expressed in transfected cells; host or cells: HEK293
Method: as §1

[3] = target: T3, glucagon receptor (Homo sapiens, UniProt P47871)
T3 construct: expressed in transfected cells; host or cells: HEK293
Method: as §1

[4] = Table 1, analogs of SEQ ID NO: 37
[5] = Table 2, analogs of SEQ ID NO: 10
[6] = Table 3, analogs of SEQ ID NO: 12

T3 sequence (P47871 26-477): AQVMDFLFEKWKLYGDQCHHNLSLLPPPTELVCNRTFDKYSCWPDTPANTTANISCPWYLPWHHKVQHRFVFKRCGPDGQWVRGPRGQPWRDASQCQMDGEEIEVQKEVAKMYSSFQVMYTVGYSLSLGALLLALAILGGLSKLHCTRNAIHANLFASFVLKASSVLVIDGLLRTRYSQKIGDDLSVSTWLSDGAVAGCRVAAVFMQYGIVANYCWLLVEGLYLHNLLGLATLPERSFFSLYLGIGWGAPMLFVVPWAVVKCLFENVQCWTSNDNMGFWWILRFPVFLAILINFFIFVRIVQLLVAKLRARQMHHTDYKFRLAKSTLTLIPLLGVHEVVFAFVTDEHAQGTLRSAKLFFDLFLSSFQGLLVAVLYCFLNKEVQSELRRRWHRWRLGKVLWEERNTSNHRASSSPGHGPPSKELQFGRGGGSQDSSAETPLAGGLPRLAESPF
T2 sequence (P43220 24-463): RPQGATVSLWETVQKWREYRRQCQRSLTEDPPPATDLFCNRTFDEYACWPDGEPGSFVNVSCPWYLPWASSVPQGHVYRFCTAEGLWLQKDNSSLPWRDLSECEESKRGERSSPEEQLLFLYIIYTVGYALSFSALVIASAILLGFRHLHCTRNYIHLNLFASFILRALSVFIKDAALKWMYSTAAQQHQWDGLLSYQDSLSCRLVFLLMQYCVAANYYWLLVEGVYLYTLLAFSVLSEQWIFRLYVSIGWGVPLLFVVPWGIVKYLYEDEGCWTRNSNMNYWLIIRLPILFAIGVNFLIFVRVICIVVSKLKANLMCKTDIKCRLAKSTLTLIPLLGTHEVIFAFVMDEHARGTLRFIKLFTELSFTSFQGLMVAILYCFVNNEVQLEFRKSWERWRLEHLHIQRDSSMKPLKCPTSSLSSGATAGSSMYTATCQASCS

SMILES	EC50 [1, 4] [pM]	EC50 [2, 4] [pM]	EC50 [3, 4] [pM]	also measured
CCCCCCCCCCCCCCCC(=O)N[C@@H](CCC(=O)NCCCC[C@H](NC(=O)[C@H](CC(=O)O)NC(=O)[C@H](CO)NC(=O)[C@@H](NC(=O)[C@H](Cc1ccccc1)NC(=O)[C@@H](NC(=O)CNC(=O)[C@H](CCC(N)=O)NC(=O)C(C)(C)NC(=O)[C@@H](N)Cc1c[nH]cn1)[C@@H](C)O)[C@@H](C)O)C(=O)N[C@@H](CO)C(=O)N[C@@H](CCCCN)C(=O)N[C@@H](Cc1ccc(O)cc1)C(=O)N[C@@H](CC(C)C)C(=O)N[C@@H](CC(=O)O)C(=O)N[C@@H](CCC(=O)O)C(=O)N[C@@H](CCCNC(=N)N)C(=O)N[C@@H](C)C(=O)N[C@@H](C)C(=O)N[C@@H](CCC(N)=O)C(=O)N[C@@H](CC(=O)O)C(=O)N[C@@H](Cc1ccccc1)C(=O)N[C@H](C(=O)N[C@@H](CCC(N)=O)C(=O)N[C@@H](Cc1c[nH]c2ccccc12)C(=O)N[C@@H](CC(C)C)C(=O)N[C@@H](CC(C)C)C(=O)N[C@@H](CCC(=O)O)C(=O)NCC(=O)NCC(=O)N1CCC[C@H]1C(=O)N[C@@H](CO)C(=O)N[C@@H](CO)C(=O)NCC(=O)N[C@@H](C)C(=O)N1CCC[C@H]1C(=O)N1CCC[C@H]1C(=O)N1CCC[C@H]1C(=O)N[C@@H](CO)C(N)=O)C(C)C)C(=O)O [compound 37] (H-H[Aib]QGTFTSDK([γGlu-Palmitoyl])SKYLDERAAQDFVQWLLEGGPSSGAPPPS-NH2; N-terminus assumed)	3	6	9	
CCCCCCCCCCCCCCCC(=O)N[C@@H](CCC(=O)NCCCC[C@H](NC(=O)[C@H](CC(=O)O)NC(=O)[C@H](CO)NC(=O)[C@@H](NC(=O)[C@H](Cc1ccccc1)NC(=O)[C@@H](NC(=O)CNC(=O)[C@H](CCC(=O)O)NC(=O)[C@H](C)NC(=O)[C@@H](Cc1ccc(O)cc1)NC(C)=O)[C@@H](C)O)[C@@H](C)O)C(=O)N[C@@H](CO)C(=O)N[C@@H](CCCCN)C(=O)N[C@@H](Cc1ccc(O)cc1)C(=O)N[C@@H](CC(C)C)C(=O)N[C@@H](CC(=O)O)C(=O)N[C@@H](CCC(=O)O)C(=O)N[C@@H](CCCNC(=N)N)C(=O)N[C@@H](C)C(=O)N[C@@H](C)C(=O)N[C@@H](CCC(N)=O)C(=O)N[C@@H](CC(=O)O)C(=O)N[C@@H](Cc1ccccc1)C(=O)N[C@H](C(=O)N[C@@H](CCC(N)=O)C(=O)N[C@@H](Cc1c[nH]c2ccccc12)C(=O)N[C@@H](CC(C)C)C(=O)N[C@@H](CC(C)C)C(=O)N[C@@H](CCC(=O)O)C(=O)NCC(=O)NCC(=O)N1CCC[C@H]1C(=O)N[C@@H](CO)C(=O)N[C@@H](CO)C(=O)NCC(=O)N[C@@H](C)C(=O)N1CCC[C@H]1C(=O)N1CCC[C@H]1C(=O)N1CCC[C@H]1C(=O)N[C@@H](CO)C(N)=O)C(C)C)C(=O)O [compound 141]				EC50 [1, 5]: 2 pM; EC50 [2, 5]: 6 pM; EC50 [3, 5]: 419 pM
CCCCCCCCCCCCCCCC(=O)N[C@@H](CCC(=O)NCCCC[C@H](NC(=O)[C@H](CC(=O)O)NC(=O)[C@H](CO)NC(=O)[C@@H](NC(=O)[C@H](Cc1ccccc1)NC(=O)[C@@H](NC(=O)CNC(=O)[C@H](CCC(N)=O)NC(=O)[C@H](C)NC(=O)CCc1c[nH]cn1)[C@@H](C)O)[C@@H](C)O)C(=O)N[C@@H](CO)C(=O)N[C@@H](CCCCN)C(=O)N[C@@H](Cc1ccc(O)cc1)C(=O)N[C@@H](CC(C)C)C(=O)N[C@@H](CC(=O)O)C(=O)N[C@@H](CCC(=O)O)C(=O)N[C@@H](CCCNC(=N)N)C(=O)N[C@@H](C)C(=O)N[C@@H](C)C(=O)N[C@@H](CCC(N)=O)C(=O)N[C@@H](CC(=O)O)C(=O)N[C@@H](Cc1ccccc1)C(=O)N[C@H](C(=O)N[C@@H](CCC(N)=O)C(=O)N[C@@H](Cc1c[nH]c2ccccc12)C(=O)N[C@@H](CC(C)C)C(=O)N[C@@H](CC(C)C)C(=O)N[C@@H](CCC(=O)O)C(=O)NCC(=O)NCC(=O)N1CCC[C@H]1C(=O)N[C@@H](CO)C(=O)N[C@@H](CO)C(=O)NCC(=O)N[C@@H](C)C(=O)N1CCC[C@H]1C(=O)N1CCC[C@H]1C(=O)N1CCC[C@H]1C(=O)N[C@@H](CO)C(N)=O)C(C)C)C(=O)O [compound 22] (Desaminohistidyl-AQGTFTSDK([γGlu-Palmitoyl])SKYLDERAAQDFVQWLLEGGPSSGAPPPS-NH2)	41	3	17	
CCCCCCCCCCCCCCCC(=O)N[C@@H](CCC(=O)NCCCC[C@H](NC(=O)[C@H](CC(=O)O)NC(=O)[C@H](CO)NC(=O)[C@@H](NC(=O)[C@H](Cc1ccccc1)NC(=O)[C@@H](NC(=O)CNC(=O)[C@H](CCC(N)=O)NC(=O)[C@H](C)NC(=O)[C@@H](Cc1ccc(O)cc1)NC(C)=O)[C@@H](C)O)[C@@H](C)O)C(=O)N[C@@H](CO)C(=O)N[C@@H](CCCCN)C(=O)N[C@@H](Cc1ccc(O)cc1)C(=O)N[C@@H](CC(C)C)C(=O)N[C@@H](CC(=O)O)C(=O)N[C@@H](CCC(=O)O)C(=O)N[C@@H](CCCNC(=N)N)C(=O)N[C@@H](C)C(=O)N[C@@H](C)C(=O)N[C@@H](CCC(N)=O)C(=O)N[C@@H](CC(=O)O)C(=O)N[C@@H](Cc1ccccc1)C(=O)N[C@H](C(=O)N[C@@H](CCC(N)=O)C(=O)N[C@@H](Cc1c[nH]c2ccccc12)C(=O)N[C@@H](CC(C)C)C(=O)N[C@@H](CC(C)C)C(=O)N[C@@H](CCC(=O)O)C(=O)N[C@@H](C)C(=O)NCC(=O)N1CCC[C@H]1C(=O)N[C@@H](CO)C(=O)N[C@@H](CO)C(=O)NCC(=O)N[C@@H](C)C(=O)N1CCC[C@H]1C(=O)N1CCC[C@H]1C(=O)N1CCC[C@H]1C(=O)N[C@@H](CO)C(N)=O)C(C)C)C(=O)O [compound 146] (Ac-[dY]AQGTFTSDK([γGlu-Palmitoyl])SKYLDERAAQDFVQWLLEAGPSSGAPPPS-NH2)				EC50 [1, 6]: 6 pM; EC50 [2, 6]: 7 pM; EC50 [3, 6]: 9 pM
CCCCCCCCCCCCCCCC(=O)N[C@@H](CCC(=O)NCCCC[C@H](NC(=O)[C@H](CC(=O)O)NC(=O)[C@H](CO)NC(=O)[C@@H](NC(=O)[C@H](Cc1ccccc1)NC(=O)[C@@H](NC(=O)CNC(=O)[C@H](CCC(N)=O)NC(=O)[C@H](C)NC(=O)CCc1ccc(O)cc1)[C@@H](C)O)[C@@H](C)O)C(=O)N[C@@H](CO)C(=O)N[C@@H](CCCCN)C(=O)N[C@@H](Cc1ccc(O)cc1)C(=O)N[C@@H](CC(C)C)C(=O)N[C@@H](CC(=O)O)C(=O)N[C@@H](CCC(=O)O)C(=O)N[C@@H](CCCNC(=N)N)C(=O)N[C@@H](C)C(=O)N[C@@H](C)C(=O)N[C@@H](CCC(N)=O)C(=O)N[C@@H](CC(=O)O)C(=O)N[C@@H](Cc1ccccc1)C(=O)N[C@H](C(=O)N[C@@H](CCC(N)=O)C(=O)N[C@@H](Cc1c[nH]c2ccccc12)C(=O)N[C@@H](CC(C)C)C(=O)N[C@@H](CC(C)C)C(=O)N[C@@H](CCC(=O)O)C(=O)NCC(=O)NCC(=O)N1CCC[C@H]1C(=O)N[C@@H](CO)C(=O)N[C@@H](CO)C(=O)NCC(=O)N[C@@H](C)C(=O)N1CCC[C@H]1C(=O)N1CCC[C@H]1C(=O)N1CCC[C@H]1C(=O)N[C@@H](CO)C(N)=O)C(C)C)C(=O)O [compound 11] (Desaminotyrosyl-AQGTFTSDK([γGlu-Palmitoyl])SKYLDERAAQDFVQWLLEGGPSSGAPPPS-NH2)	2	2	16	
CCCCCCCCCCCCCCCC(=O)N[C@@H](CCC(=O)NCCCC[C@H](NC(=O)[C@H](CC(=O)O)NC(=O)[C@H](CO)NC(=O)[C@@H](NC(=O)[C@H](Cc1ccccc1)NC(=O)[C@@H](NC(=O)CNC(=O)[C@H](CCC(N)=O)NC(=O)[C@@H]1CCCN1C(=O)[C@@H](N)Cc1cccs1)[C@@H](C)O)[C@@H](C)O)C(=O)N[C@@H](CO)C(=O)N[C@@H](CCCCN)C(=O)N[C@@H](Cc1ccc(O)cc1)C(=O)N[C@@H](CC(C)C)C(=O)N[C@@H](CC(=O)O)C(=O)N[C@@H](CCC(=O)O)C(=O)N[C@@H](CCCNC(=N)N)C(=O)N[C@@H](C)C(=O)N[C@@H](C)C(=O)N[C@@H](CCC(N)=O)C(=O)N[C@@H](CC(=O)O)C(=O)N[C@@H](Cc1ccccc1)C(=O)N[C@H](C(=O)N[C@@H](CCC(N)=O)C(=O)N[C@@H](Cc1c[nH]c2ccccc12)C(=O)N[C@@H](CC(C)C)C(=O)N[C@@H](CC(C)C)C(=O)N[C@@H](CCC(=O)O)C(=O)NCC(=O)NCC(=O)N1CCC[C@H]1C(=O)N[C@@H](CO)C(=O)N[C@@H](CO)C(=O)NCC(=O)N[C@@H](C)C(=O)N1CCC[C@H]1C(=O)N1CCC[C@H]1C(=O)N1CCC[C@H]1C(=O)N[C@@H](CO)C(N)=O)C(C)C)C(=O)O [compound 33] (H-[2Thi]PQGTFTSDK([γGlu-Palmitoyl])SKYLDERAAQDFVQWLLEGGPSSGAPPPS-NH2)	430	5	121	
